The subject of one data set is HIV-1. The note with it: cell fusion, entry and replication; compared with parent or control peptide. The source says: HIV-1 pseudovirus-mediated cell entry inhibition assay: basic steps included: (1) Preparation of HIV-1 pseudovirus: the 293T cells were co-transfected with a plasmid expressing the envelope protein (Env) of HIV-1 strain NL4-3 (i.e., a recombinant expression plasmid obtained by inserting the gene encoding the envelope protein (ENV) of the D36G mutant of the HIV-1 strain NL4-3 in the Table 2 of the Reference 14 listed in the Background Art into the vector pcDNA3.1(−)) and the HIV-1 backbone plasmid pSG3Δenv (provided by the AIDS Reagent Program of National Institutes of Health (NIH), catalog number: 11051) by using a cell transfection reagent, incubated in a cell incubator of 37° C. and 5% CO2 for 6 hours, and then the medium was changed, and the cells were further incubated for 48 hours. The cell culture supernatant containing pseudovirus particles was pipetted and filtered with a 0.45 μm filter to collect the supernatant, then 20% fetal bovine serum (FBS) was added thereto, the final solution was transferred to a polypropylene tube, and stored at −80° C. for ready for use or directly subjected to virus titration. (2) Titration of HIV-1 pseudovirus: the viruses were diluted by 5 folds in a 96-well plate, and 4 replicate wells with 8 gradients were set to a final volume of 100 microliters. The TZM-b1 cells were trypsinized and counted, and the cells were diluted to 1×10^5 cells/ml with DMEM complete medium; 100 μl of cells dilution (containing 15 μg/ml DEAE-dextran) per well were added and cultured at 37° C. and 5% CO2 for 48 hours. The 96-well plate was then taken from the cell culture incubator. The supernatant was discarded from the wells. To each well, 30 μl of a cell lysate was added, and after 10 minutes, 100 μl of a luciferase detection reagent was added. 100 μl of liquid was pipetted from each well and added to a corresponding 96-well white plate, and the luminescence values were read by a microplate photometer. The virus titer was calculated by the Reed-Muench method. […]

In data set [1] the test system is HIV-2 strain ROD (infectious). As to the kind of experiment: inhibition of HIV-2. It counts as cell-based. The note with it: HIV-2 ROD.
For data set [2], the system named is SIV pseudoviruses SIVpbj and SIV239. As to the kind of experiment: inhibition of SIV pseudoviruses. It is filed as cell-based.
Data set [3] has as its target N39 (NHR-derived polypeptide of gp41) (Human immunodeficiency virus type 1 group M subtype B, UniProt P04578). It is filed as binding, HIV-1. The following applies: 10 μM each, PBS pH 7.2.
The nature of data set [4]: circular dichroism secondary structure analysis of the inhibitors themselves. It is filed as physicochemical. The note with it: 10 μM, 20 μM and 40 μM in PBS. In general terms: CD spectra are sensitive to the conformation of chiral molecules.

Peptide text beside a SMILES is read from it. * marks the point of attachment. Palmitoyl = CCCCCCCCCCCCCCCC(=O)*

Sequence of N39 (NHR-derived polypeptide of gp41) (P04578 528-566): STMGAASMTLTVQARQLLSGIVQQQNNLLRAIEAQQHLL

For the molecule `CCCCCCCCCCCCCCCC(=O)NCCCC[C@H](NC(=O)[C@H](CCC(=O)O)NC(=O)[C@H](CC(C)C)NC(=O)[C@H](CCCCN)NC(=O)[C@H](CCCCN)NC(=O)[C@H](CC(C)C)NC(=O)[C@H](CCC(=O)O)NC(=O)[C@H](CCC(=O)O)NC(=O)[C@H](CCC(=O)O)NC(=O)[C@H](CC(N)=O)NC(=O)[C@H](CCCCN)NC(=O)[C@H](CCCCN)NC(=O)[C@H](CCC(N)=O)NC(=O)[C@H](CCC(N)=O)NC(=O)[C@H](CCC(=O)O)NC(=O)[C@H](CCC(=O)O)NC(=O)[C@H](C)NC(=O)[C@H](CCCCN)NC(=O)[C@H](CCCCN)NC(=O)[C@H](CC(C)C)NC(=O)[C@H](CC(C)C)NC(=O)[C@H](CCC(=O)O)NC(=O)[C@H](CCC(=O)O)NC(=O)[C@@H](NC(=O)[C@H](CC(N)=O)NC(=O)[C@H](C)NC(=O)[C@H](CCC(=O)O)NC(=O)[C@H](CC(C)C)NC(C)=O)[C@@H](C)CC)C(N)=O` [LP-51] (Ac-LEANIEELLKKAEEQQKKNEEELKKLEK(Palmitoyl)-NH2), the “antiviral activity (in words)” value with HIV-1 is “comparable to that of the LP-50”. The “inhibitory activity against HIV-2 (in words)” value in data set [1] is on record as “extremely potent inhibitory activity”. Besides, in data set [2], the “inhibitory activity against SIV (in words)” value was “extremely potent inhibitory activity”. Further, the “Tm value of the complex with N39” value in data set [3] amounted to 72 °C. Also, the “secondary structure of the inhibitor itself (in words)” value in data set [4] was “distinct helical structure”.
